One assay has as its target T1, SF-1 (Homo sapiens, UniProt Q13285).
T1 construct: NCI-H295R SF-1-HiBiT cells with HiBiT tag knocked in at the endogenous SF1 locus; host or cells: NCI-H295R SF-1-HiBiT (knock-in at endogenous locus)
The assay can be described thus: SF1 degradation induction in NCI-H295R SF-1-HiBiT cells (HiBiT DC50). Conditions: 24 hr, concentration that induces 50% degradation of SF-1. Format: cell-based. Put shortly: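 NCI-H295R cells carrying HiBiT-tagged SF-1, plated and grown 24 hr, then exposed to serially diluted compounds for 24 hr at 37° C. Remaining SF-1 read by lytic HiBiT luminescence; degradation rate from treated vs compound-free signal, DC50 as concentration giving 50% degradation.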
In general terms: With HiBiT, luminescence reflects the tagged protein that the partner subunit can reach.

In another assay the test system is NCI-H295R cells. The assay can be described thus: Proliferation inhibitory action on NCI-H295R (CellTiter-Glo, 7 days). Format: cell-based, human. Conditions: Homo sapiens, NCI-H295R, 168 h. Put shortly:
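Compounds serially diluted in DMSO; cells seeded at 2×10^3 cells/well and cultured 7 days at 37° C, 5% CO2. CellTiter-Glo 2.0 luminescence read at day 0 and day 7; proliferation rate derived from compound-addition-day signal, untreated day-7 signal and treated day-7 signal.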

These results are taken from patent US12606533B2, “3-phenylpropylamine derivative” (DAIICHI SANKYO COMPANY, LIMITED, priority 2023, dated 2026).

Usually DC50 stands for the midpoint of the concentration-degradation curve. A higher DC50 goes with degradation only at high concentration. By GI50 is commonly meant the concentration at which growth is held to half of that of the control. Higher therefore signals less potent growth inhibition. In turn, `COc1ccc([C@]2(CCN(Cc3ccc(C4=CC[C@H](C(=O)N5CCC(Nc6cc7c(cc6F)n(C6CCC(=O)NC6=O)c(=O)n7C)CC5)CC4)cc3)CC(C)(C)C(F)(F)F)CCOC(C)(C)C2)cc1` (stereo partly drawn) [BT6, 3-{6-Fluoro-5-[(1-{[(4R)-4′-{[{2-[(4R)-4-(4-methoxyphenyl)-2,2-dimethyltetrahydro-2H-pyran-4-yl]ethyl}(3,3,3-trifluoro-2,2-dimethylpropyl)amino]methyl}-2,3,4,5-tetrahydro[biphenyl]-4-yl]carbonyl}piperidin-4-yl)amino]-3-methyl-2-oxo-2,3-dihydro-1H-benzimidazol-1-yl}piperidine-2,6-dione] showed a DC50 at SF-1 of 0.0035 µM. The same compound gave a GI50 in the assay on NCI-H295R cells of 0.048 µM.

As to `COc1ccc([C@]2(CCN(Cc3ccc(C4=CC[C@H](CN5CCN(C(=O)c6ccc7c8c6OCCn8c(=O)n7C6CCC(=O)NC6=O)CC5)CC4)cc3)CC(C)(C)C(F)(F)F)CCOC(C)(C)C2)cc1` (stereo partly drawn) [BU6, 3-{7-[(4-{[(4R)-4′-{[{2-[(4R)-4-(4-Methoxyphenyl)-2,2-dimethyltetrahydro-2H-pyran-4-yl]ethyl}(3,3,3-trifluoro-2,2-dimethylpropyl)amino]methyl}-2,3,4,5-tetrahydro[biphenyl]-4-yl]methyl}piperazin-1-yl)carbonyl]-2-oxo-4,5-dihydroimidazo[1,5,4-de][1,4]benzoxazin-1(2H)-yl}piperidine-2,6-dione], half-maximal degradation at SF-1 (DC50) was put at 0.018 µM. The compound also had a concentration for 50% growth inhibition (GI50) in the assay on NCI-H295R cells of 0.064 µM.

`COc1ccc([C@]2(CCN(Cc3ccc(C4=CC[C@H](C(=O)N5CC(Nc6ccc7c8c6CCCn8c(=O)n7C6CCC(=O)NC6=O)C5)CC4)c(F)c3)CC(C)(C)C(F)(F)F)CCOC(C)(C)C2)cc1` (stereo partly drawn) [BW3, 3-{7-[(1-{[(4R)-2′-Fluoro-4′-{[{2-[(4R)-4-(4-methoxyphenyl)-2,2-dimethyltetrahydro-2H-pyran-4-yl]ethyl}(3,3,3-trifluoro-2,2-dimethylpropyl)amino]methyl}-2,3,4,5-tetrahydro[biphenyl]-4-yl]carbonyl}azetidin-3-yl)amino]-2-oxo-5,6-dihydro-4H-imidazo[4,5,1-ij]quinolin-1(2H)-yl}piperidine-2,6-dione]: the DC50 at SF-1 was found to be 0.0091 µM. For the same compound, it took 0.086 µM to inhibit growth in the assay with NCI-H295R cells by half (GI50).

At SF-1, `COc1ccc([C@]2(CCN(Cc3ccc(C4=CC[C@H](C(=O)N5CCC(Nc6ccc7c(c6F)n(C)c(=O)n7C6CCC(=O)NC6=O)CC5)CC4)c(F)c3)CC(C)(C)C(F)(F)F)CCOC(C)(C)C2)cc1` (stereo partly drawn) [BX6, 3-{4-Fluoro-5-[(1-{[(4R)-2′-fluoro-4′-{[{2-[(4R)-4-(4-methoxyphenyl)-2,2-dimethyltetrahydro-2H-pyran-4-yl]ethyl}(3,3,3-trifluoro-2,2-dimethylpropyl)amino]methyl}-2,3,4,5-tetrahydro[biphenyl]-4-yl]carbonyl}piperidin-4-yl)amino]-3-methyl-2-oxo-2,3-dihydro-1H-benzimidazol-1-yl}piperidine-2,6-dione] showed a DC50 of 0.0071 µM. Further, in the assay on NCI-H295R cells, the GI50 came to 0.052 µM.

Regarding `COc1ccc([C@]2(CCN(Cc3ccc(C4=CC[C@@H](CN5CCN(C(=O)c6ccc7c8c6NCCn8c(=O)n7C6CCC(=O)NC6=O)CC5)CC4)cc3)CC(C)(C)C(F)(F)F)CCOC(C)(C)C2)cc1` (stereo partly drawn) [BZ7, 3-{7-[(4-{[(4S)-4′-{[{2-[(4R)-4-(4-Methoxyphenyl)-2,2-dimethyltetrahydro-2H-pyran-4-yl]ethyl}(3,3,3-trifluoro-2,2-dimethylpropyl)amino]methyl)-2,3,4,5-tetrahydro[biphenyl]-4-yl]methyl}piperazin-1-yl)carbonyl]-2-oxo-5,6-dihydro-4H-imidazo[1,5,4-de]quinoxalin-1(2H)-yl}piperidine-2,6-dione], the half-maximal degradation concentration (DC50) on SF-1 came out at 0.004 µM. The compound further displayed a 50% growth inhibitory concentration (GI50) in the assay with NCI-H295R cells of 0.027 µM.

`COc1ccc([C@]2(CCN(CC(C)(C)C(F)(F)F)C[C@H]3CC[C@H](c4ccc(NC(=O)N5CCC(Nc6ccc7c(c6)n(C)c(=O)n7C6CCC(=O)NC6=O)CC5)cc4)CC3)CCOC(C)(C)C2)cc1` (stereo partly drawn) [CA1, 4-{[1-(2,6-Dioxopiperidin-3-yl)-3-methyl-2-oxo-2,3-dihydro-1H-benzimidazol-5-yl]amino}-N-[4-(trans-4-{[{2-[(4R)-4-(4-methoxyphenyl)-2,2-dimethyltetrahydro-2H-pyran-4-yl]ethyl) (3,3,3-trifluoro-2,2-dimethylpropyl)amino]methyl}cyclohexyl)phenyl]piperidine-1-carboxamide] had a DC50 at SF-1 of 0.0055 µM. The compound further yielded a GI50 in the assay with NCI-H295R cells of 0.048 µM.

Take `COc1ccc([C@]2(CCN(Cc3ccc(C4=CC[C@H](C(=O)N5CCN(Cc6ccc7c8c6CN(C)CCn8c(=O)n7C6CCC(=O)NC6=O)CC5)CC4)c(F)c3)CC(C)(C)C(F)(F)F)CCOC(C)(C)C2)cc1` (stereo partly drawn) [CB10, 3-{8-[(4-{[(4R)-2′-Fluoro-4′-{[{2-[(4R)-4-(4-methoxyphenyl)-2,2-dimethyltetrahydro-2H-pyran-4-yl]ethyl}(3,3,3-trifluoro-2,2-dimethylpropyl)amino]methyl}-2,3,4,5-tetrahydro[biphenyl]-4-yl]carbonyl}piperazin-1-yl)methyl]-6-methyl-2-oxo-4,5,6,7-tetrahydroimidazo[4,5,1-jk][1,4]benzodiazepin-1(2H)-yl}piperidine-2,6-dione]: the DC50 at SF-1 worked out at 0.013 µM. Besides, the GI50 with NCI-H295R cells is 0.085 µM.

The compound `COc1ccc([C@]2(CCN(Cc3ccc(C4=CC[C@H](C(=O)N5C6COCC5CC(Nc5ccc7c8c5CCCn8c(=O)n7C5CCC(=O)NC5=O)C6)CC4)c(F)c3)CC(C)(C)C(F)(F)F)CCOC(C)(C)C2)cc1` (stereo partly drawn) [CC3, 3-[7-{[(7-Exo)-9-{[(4R)-2′-fluoro-4′-{[{2-[(4R)-4-(4-methoxyphenyl)-2,2-dimethyltetrahydro-2H-pyran-4-yl]ethyl)(3,3,3-trifluoro-2,2-dimethylpropyl)amino]methyl}-2,3,4,5-tetrahydro[biphenyl]-4-yl]carbonyl}-3-oxa-9-azabicyclo[3.3.1]nonan-7-yl]amino}-2-oxo-5,6-dihydro-4H-imidazo[4,5,1-ij]quinolin-1(2H)-yl]piperidine-2,6-dione] yielded a DC50 on SF-1 of 0.0049 µM. The compound also came in with a GI50 in the assay on NCI-H295R cells of 0.036 µM.

`COc1ccc([C@]2(CCN(Cc3ccc(C4=CC[C@H](C(=O)N5CCC(Nc6cccc7c6n(C)c(=O)n7C6CCC(=O)NC6=O)CC5)CC4)c(F)c3)CC(C)(C)C(F)(F)F)CCOC(C)(C)C2)cc1` (stereo partly drawn) [CD2, 3-{4-[(1-{[(4R)-2′-Fluoro-4′-{[{2-[(4R)-4-(4-methoxyphenyl)-2,2-dimethyltetrahydro-2H-pyran-4-yl]ethyl}(3,3,3-trifluoro-2,2-dimethylpropyl)amino]methyl}-2,3,4,5-tetrahydro[biphenyl]-4-yl]carbonyl}piperidin-4-yl)amino]-3-methyl-2-oxo-2,3-dihydro-1H-benzimidazol-1-yl}piperidine-2,6-dione] gave a DC50 at SF-1 of 0.007 µM. In the assay on NCI-H295R cells, this compound had a GI50 of 0.033 µM.

With `COc1ccc([C@]2(CCN(Cc3ccc(C4=CC[C@H](CN5CCN(C(=O)c6ccc7c8c6NCCn8c(=O)n7[C@H]6CCC(=O)NC6=O)CC5)CC4)cc3)CC(C)(C)C(F)(F)F)CCOC(C)(C)C2)cc1` [CE1, (3S)-3-{7-[(4-{[(4R)-4′-{[{2-[(4R)-4-(4-Methoxyphenyl)-2,2-dimethyltetrahydro-2H-pyran-4-yl]ethyl)(3,3,3-trifluoro-2,2-dimethylpropyl)amino]methyl}-2,3,4,5-tetrahydro[biphenyl]-4-yl]methyl}piperazin-1-yl)carbonyl]-2-oxo-5,6-dihydro-4H-imidazo[1,5,4-de]quinoxalin-1(2H)-yl}piperidine-2,6-dione], half-maximal degradation at SF-1 (DC50) was put at 0.0043 µM. The GI50 in the assay with NCI-H295R cells came out at 0.07 µM.

The compound `COc1ccc([C@]2(CCN(Cc3ccc(C4=CC[C@H](CN5CCN(C(=O)c6ccc7c8c6NCCn8c(=O)n7[C@@H]6CCC(=O)NC6=O)CC5)CC4)cc3)CC(C)(C)C(F)(F)F)CCOC(C)(C)C2)cc1` [CF1, (3R)-3-{7-[(4-{[(4R)-4′-{[{2-[(4R)-4-(4-Methoxyphenyl)-2,2-dimethyltetrahydro-2H-pyran-4-yl]ethyl)(3,3,3-trifluoro-2,2-dimethylpropyl)amino]methyl}-2,3,4,5-tetrahydro[biphenyl]-4-yl]methyl}piperazin-1-yl)carbonyl]-2-oxo-5,6-dihydro-4H-imidazo[1,5,4-de]quinoxalin-1(2H)-yl}piperidine-2,6-dione] displayed a DC50 at SF-1 of 0.0051 µM. In the assay on NCI-H295R cells, this compound came in with a GI50 of 0.084 µM.

Compound `COc1ccc([C@]2(CCN(Cc3ccc(-c4cccc(CC(=O)NCCNc5ccc6c(c5)n(C)c(=O)n6C5CCC(=O)NC5=O)c4)cc3)CC(C)(C)C(F)(F)F)CCOC(C)(C)C2)cc1` (stereo partly drawn) [Example AA4, N-(2-{[1-(2,6-Dioxopiperidin-3-yl)-3-methyl-2-oxo-2,3-dihydro-1H-benzimidazol-5-yl]amino}ethyl)-2-(4′-{[{2-[(4R)-4-(4-methoxyphenyl)-2,2-dimethyltetrahydro-2H-pyran-4-yl]ethyl)(3,3,3-trifluoro-2,2-dimethylpropyl)amino]methyl}[biphenyl]-3-yl)acetamide] yielded a DC50 on SF-1 of 0.012 µM. The GI50 in the assay on NCI-H295R cells came out at 0.488 µM.

Consider `COc1ccc(C2(CCN(Cc3ccc(OC4CCN(CC(=O)Nc5cccc6c5n(C)c(=O)n6C5CCC(=O)NC5=O)CC4)cc3)CC(C)(C)C(F)(F)F)CCC(F)(F)CC2)cc1` (centres unmarked) [Example AB6, 2-[4-(4-{[{2-[4,4-Difluoro-1-(4-methoxyphenyl)cyclohexyl]ethyl}(3,3,3-trifluoro-2,2-dimethylpropyl)amino]methyl}phenoxy)piperidin-1-yl]-N-[1-(2,6-dioxopiperidin-3-yl)-3-methyl-2-oxo-2,3-dihydro-1H-benzimidazol-4-yl]acetamide], for which it took 0.029 µM to reach half-maximal degradation at SF-1 (DC50). The compound also returned a GI50 in the assay on NCI-H295R cells of 0.165 µM.
